Measurements as given in patent publication US20250276977A1, “TYK2 INHIBITORS AND USES THEREOF” (Alumis Inc., priority 2019, published 2025).
Like-named read-outs stand apart in the source and are kept apart here.

System: INFα induced pSTAT5
Assay: INFα induced pSTAT5 in human PBMC
Assay type: cell-based
Settings: INFα 5000 units/ml, read-out: p-STAT5 IC50
Experimental: Fresh Human PBMCs were resuspended in RPMI 1640 medium with 10% FBS. Cells were seeded in a round bottom 96-well plate at the concentration of 200,000 cells/well. A 10-point dilution series of test compound (top dose 10 uM, 1:5 dilution) was added to the well using the liquid dispenser (Tecan D300e) and incubated for 1 hour at 37 C. Then human INFα recombinant protein (R&D Systems) was added to the well at the final concentration of 5000 units/ml and incubated for 15 minutes at 37 C. Cell lysates were prepared and analyzed by Phospho STAT3 (Tyr705) cellular kit (Cisbio) or Phospho STAT5 (Tyr693) Kit (Meso Scale Discovery) following manufacturer's protocol.
For calculation of the inhibition rate, the relative pSTAT signal of each well=pSTAT signal of each well−the average pSTAT signal of baseline.
The inhibition %=(the average pSTAT signal of INFα treatment wells—the relative of pSTAT signal in each compound containing well)/the average pSTAT signal of INFα treatment wells * 100%
The curve was plotted as the inhibition % (y-axis) vs. compounds concentration (x-axis) and was fitted with log(inhibitor) vs. normalized response—Variable slope by GraphPad Prism7.0.

| SMILES | IC50 [nM] | IC50 (Homo sapiens, PBMC) [nM] |
| --- | --- | --- |
| CNc1cc2nc3c(cnn13)C(=O)N[C@H](C)C(C)OCc1ccc(OC)c(c1)N2 (single isomer, unassigned) [Example 32] | 0.7 |  |
| CNc1cc2nc3c(cnn13)C(=O)N[C@H](C)C(C)OCc1ccc(OC)c(c1)N2 (single isomer, unassigned) [Example 33] | 42.8 |  |
| CNc1cc2nn3c(cnc13)C(=O)NCCCOc1cnc(OC)c(c1)N2 [Example 5] |  | 151 |
| CNc1cc2nn3c(cnc13)C(=O)NCC(C)OCc1ccc(OC)c(c1)N2 (stereo not drawn) [Example 8] |  | 13.9 |
| CNc1cc2nn3c(cnc13)C(=O)NCCOCc1cccc(OC)c1N2 [Example 9] |  | 923 |
| CNc1cc2nn3c(cnc13)C(=O)N[C@@H](C)COCc1ccc(OC)c(c1)N2 [Example 11] |  | 436 |
| CNc1cc2nc3c(cnn13)C(=O)NC(C)COCc1ccc(OC)c(c1)N2 (stereo not drawn) [Example 12] |  | 2.2 |
| CNc1cc2nn3c(cnc13)C(=O)NCCOC(C)c1ccc(OC)c(c1)N2 (stereo not drawn) [Example 13] |  | 460 |
| CNc1cc2nn3c(cnc13)C(=O)N[C@H](C)COCc1cnc(OC)c(c1)N2 [Example 14] |  | 3 |
| CNc1cc2nn3c(cnc13)C(=O)NC(C)COCc1cc(c(OC)cc1F)N2 (stereo not drawn) [Example 16] |  | 3.6 |
| CNc1cc2nn3c(cnc13)C(=O)N[C@H](C)COCc1cc(c(OC)cc1F)N2 [Example 17, (E)-3^4-fluoro-3^6-methoxy-7-methyl-1^8-(methylamino)-5-oxa-2,8-diaza-1(6,3)-imidazo[1,2-b]pyridazina-3(1,3)-benzenacyclononaphan-9-one] |  | 1 |
| CNc1cc2nn3c(cnc13)C(=O)N[C@H](C)COCc1cc(F)c(OC)c(c1)N2 [Example 18, (7R,E)-3^5-fluoro-3^6-methoxy-7-methyl-1^8-(methylamino)-5-oxa-2,8-diaza-1(6,3)-imidazo[1,2-b]pyridazina-3(1, 3)-benzenacyclononaphan-9-one] |  | 1.3 |
| CNc1cc2nn3c(cnc13)C(=O)NC1(CC1)COCc1ccc(OC)c(c1)N2 [Example 20, (E)-6′-methoxy-8′-(methylamino)spiro[cyclopropane-1,7′-5-oxa-2,8-diaza-1(6,3)-imidazo[1,2-b]pyridazina-3(1,3)-benzenacyclononaphan]-9′-one] |  | 15.3 |
| CNc1cc2nn3c(cnc13)C(=O)NC(C)CCn1ncc3cc(OC)c(cc31)N2 (stereo not drawn) [Example 21, (E)-3^5-methoxy-6-methyl-1^8-(methylamino)-31H-2,7-diaza-1(6,3)-imidazo [1,2-b]pyridazina-3(6,1)-indazolacyclooctaphan-8-one] |  | 102 |
| CNc1cc2nn3c(cnc13)C(=O)N[C@H]1C[C@H](C1)OCc1ccc(OC)c(c1)N2 [Example 22] |  | 10.7 |
| CNc1cc2nc3c(cnn13)C(=O)N[C@H](C)COCc1ccc(OC)c(c1)N2 [Example 25] |  | 2.1 |

| SMILES | IC50 [nM] | IC50 (Homo sapiens, PBMC) [nM] |
| --- | --- | --- |
| CNc1cc2nc3c(cnn13)C(=O)N[C@H](C)COCc1cnc(OC)c(c1)N2 [Example 26] | > 200 |  |
| CNc1cc2nc3c(cnn13)C(=O)N[C@H](C)COCc1cc(c(OC)cn1)N2 [Example 27] |  | 7.2 |
| CNc1cc2nc3c(cnn13)C(=O)N[C@H](C)COCc1cc(c(=O)n(-c3ccccn3)c1)N2 [Example 28] |  | 8.3 |
| CNc1cc2nc3c(cnn13)C(=O)N[C@H](C)COCc1cc(c3nn(C)cc3c1)N2 [Example 29] |  | 3.1 |
| CNc1cc2nc3c(cnn13)C(=O)N[C@@H](C)C(C)OCc1ccc(OC)c(c1)N2 (stereo partly drawn) [Example 30] |  | > 200 |
| CNc1cc2nc3c(cnn13)C(=O)N[C@@H](C)C(C)OCc1ccc(OC)c(c1)N2 (stereo partly drawn) [Example 31] | > 200 |  |
| CNc1cc2nc3c(cnn13)C(=O)N[C@H](C)COCc1cc(c3oc(C)nc3c1)N2 [Example 34] |  | 2.5 |
| CNc1cc2nc3c(cnn13)C(=O)N[C@H](C)COCc1cc(c3nn(C)nc3c1)N2 [Example 35] |  | 1.7 |
| CNc1cc2nc3c(cnn13)C(=O)N[C@H](C)COCc1cc(c3nnn(C)c3c1)N2 [Example 36] |  | 0.7 |
| CNc1cc2nc3c(cnn13)C(=O)N[C@H](C)COCc1cc(c3c(c1)nnn3C)N2 [Example 37] |  | 90.1 |
| CNc1cc2nc3c(cnn13)C(=O)N[C@H](C)COc1ccc(OC)c(c1)N2 [Example 38] |  | > 200 |
| CNc1cc2nc3c(cnn13)C(=O)N[C@H](C)COCc1ccc(C#N)c(c1)N2 [Example 40] |  | 2.4 |
| CNC(=O)c1ccc2cc1Nc1cc(NC)n3ncc(c3n1)C(=O)N[C@H](C)COC2 [Example 41] |  | 3.6 |
| CNc1cc2nn3c(cnc13)C(=O)N[C@H](C)COCc1ccc(OC)c(c1)N2 [Example 42] |  | 13.6 |
| CNc1cc2nc3c(cnn13)C(=O)N[C@H](C)COCc1ccc(OC(F)(F)F)c(c1)N2 [Example 43] |  | 3.8 |
| CNc1cc2nc3c(cnn13)C(=O)N[C@H](C)COCc1cc(C#N)cc(c1)N2 [Example 44] |  | 2 |

Other lines, results leading:

| IC50 [nM] | IC50 (Homo sapiens, PBMC) [nM] | SMILES |
| --- | --- | --- |
|  | 1.1 | CNc1cc2nc3c(cnn13)C(=O)N[C@H](C)COCc1cc(cc(OC)c1)N2 [Example 45] |
|  | 2.8 | CNc1cc2nc3c(cnn13)C(=O)N[C@H](C)COCc1cc(F)cc(c1)N2 [Example 46] |
| 2.4 |  | CNc1cc2nc3c(cnn13)C(=O)N[C@H](C)COCc1cnc(OC)c(c1)N2 [Example 47] |
|  | 16.7 | CNc1cc2nc3c(cnn13)C(=O)N[C@H](C)COCc1cc(Br)c(OC)c(c1)N2 [Example 48] |
|  | 1.7 | CNc1cc2nc3c(cnn13)C(=O)N[C@H](C)COCc1cc(nc(N3CCCC3=O)c1)N2 [Example 49] |
|  | > 1000 | CNc1cc2nn3c(cnc13)C(=O)N[C@H](C)COCc1nc(C)cc(n1)N2 [Example 50, (7R,E)-3^6,7-dimethyl-1^8-(methylamino)-5-oxa-2,8-diaza-1(6,3)-imidazo[1,2-b]pyridazina-3(4,2)-pyrimidinacyclononaphan-9-one] |
|  | 5.9 | CNc1cc2nc3c(cnn13)C(=O)N[C@H](C)COCc1cc(c(OC)cc1F)N2 [Example 52, (R, 1^3E, 1^4E)-3^4-fluoro-3^6-methoxy-7-methyl-1^7-(methylamino)-5-oxa-2,8-diaza-1(5,3)-pyrazolo[1,5-a]pyrimidina-3(1,3)-benzenacyclononaphan-9-one] |
|  | 9.4 | CNc1cc2nc3c(cnn13)C(=O)N[C@H](C)COCc1cc(c3cn(C)nc3c1)N2 [Example 53, (R, 1^3E, 1^4E, 3^4E)-3^2,7-dimethyl-1^7-(methylamino)-3^2H-5-oxa-2,8-diaza-1(5,3)-pyrazolo[1,5-a]pyrimidina-3(4,6)-indazolacyclononaphan-9-one] |
|  | 0.3 | CNc1cc2nc3c(cnn13)C(=O)N[C@H](C)COCc1cc(c3cnn(C)c3c1)N2 [Example 54, (R, 1^3E, 1^4E)-31,7-dimethyl-1^7-(methylamino)-31H-5-oxa-2,8-diaza-1(5,3)-pyrazolo[1,5-a]pyrimidina-3(4,6)-indazolacyclononaphan-9-one] |
|  | > 200 | COc1ccc2nc1Nc1cc(N)n3ncc(c3n1)C(=O)N[C@H](C)COC2 [Example 55, (R, 1^3E, 1^4E)-33-methoxy-7-methyl-1^7-(methylamino)-5-oxa-2,8-diaza-1(5,3)-pyrazolo[1,5-a]pyrimidina-3(2,6)-pyridinacyclononaphan-9-one] |
|  | 28.8 | CNc1cc2nc3c(cnn13)C(=O)N[C@H](C)COCc1ccc(F)c(c1)N2 [Example 56, (R, 1^3E, 1^4E)-3^6-fluoro-7-methyl-1^7-(methylamino)-5-oxa-2,8-diaza-1(5,3)-pyrazolo[1,5-a]pyrimidina-3(1,3)-benzenacyclononaphan-9-one] |
|  | 21.2 | CNc1cc2nc3c(cnn13)C(=O)N[C@H](C)COCc1cc(c(=O)n(C)n1)N2 [Example 57, (R,1^3E,1^4E,3^4E)-31,7-dimethyl-1^7-(methylamino)-3^1,3^6-dihydro-5-oxa-2,8-diaza-1(5,3)-pyrazolo[1,5-a]pyrimidina-3(5,3)-pyridazinacyclononaphane-36,9-dione] |
|  | 7.7 | CNc1cc2nn3c(cnc13)C(=O)N[C@H](C)COCc1cc(c(=O)n(C)n1)N2 [Example 58, (15E,34E,7R)-31,7-dimethyl-18-(methylamino)-31,36-dihydro-5-oxa-2,8-diaza-1(6,3)-imidazo[1,2-b]pyridazina-3(5,3)-pyridazinacyclononaphane-36,9-dione] |
|  | 39.1 | CNc1cc2nc3c(cnn13)C(=O)N[C@H](C)COCc1cc(c(OC)nn1)N2 [Example 59, (R,1^3E,1^4E)-3^6-methoxy-7-methyl-1^7-(methylamino)-5-oxa-2,8-diaza-1(5,3)-pyrazolo[1,5-a]pyrimidina-3(5,3)-pyridazinacyclononaphan-9-one] |
|  | 3.8 | CNc1cc2nc3c(cnn13)C(=O)N[C@H](C)COCc1cc(c3nccn3c1)N2 [Example 60, (R,1^3E,1^4E,3^7E)-7-methyl-1^7-(methylamino)-5-oxa-2,8-diaza-1(5,3)-pyrazolo[1,5-a]pyrimidina-3(8,6)-imidazo[1,2-a]pyridinacyclononaphan-9-one] |
|  | 3.8 | CNc1cc2nc3c(cnn13)C(=O)N[C@H](C)COCc1cc(F)c(OC)c(c1)N2 [Example 62] |
